Results published in article PMC8004712, “MRAP2 Interaction with Melanocortin-4 Receptor in SnakeHead (Channa argus)” (Biomolecules, 2021).

Key:
goldfish = conditions: intracerebroventricular, ref [25]; cited from earlier work
Description: MC4R has been investigated in several non-mammalian vertebrates including ectotherm fish, such as goldfish, rainbow trout, spotted scat, grass carp, ricefield eel, orange-spotted grouper, and topmouth culter. Similar to mammalian MC4Rs, teleost MC4R is also involved in regulating food intake and maintaining energy balance. […] Meanwhile, intracerebroventricular administration of M ...

MC4R = conditions: ref [36],[59],[65]; cited from earlier work
Description: (decreased cell surface expression), or zebrafish and topmouth culter (increased cell surface expression). Therefore, MRAP2 has a differential effect on MC4R membrane expression in different species. […] In topmouth culter, two isoforms of MRAP2 are also sho ...

[1] = system: brain gnih, sgnrh and cgnrh; ovarian genes; conditions: black rockfish, ref not given, cited from earlier work
Description: In addition to energy homeostasis, MC4R also regulates reproduction and sexual function. Compared with mammals, the evidence of MC4R in regulating teleost reproduction is relatively scarce. In swordtail fish, nonfunctional Y-linked mc4r copies in larger males act as dominant-negative mutants and delay puberty onset. In spotted scat, MC4R stimulates gnrh expression in the hypothalamus, thereby modulating pituitary FSH and LH synthesis.

caMC4R [2] = test: Ligand binding assay, caMC4R (displacement of ^125I-NDP-MSH); parameters: species or system Channa argus (Northern snakehead); conditions: HEK293T cells, 48 h after transfection, competition with ^125I-NDP-MSH, 1-h incubation, DMEM/BSA, gamma counter, mean ± SEM of at least three independent experiments
caMC4R [3] = test: cAMP assay, caMC4R; assay type: cell-based, Channa argus (Northern snakehead); conditions: HEK293T cells

melanotan II
food intake (goldfish): inhibits food intake

ACTH
ligand sensitivity of MC4R to ACTH in the presence of MRAP2 (MC4R): increasing ligand sensitivity to ACTH

CSCC[C@H](NC(=O)[C@H](CCCNC(=N)N)NC(=O)[C@H](Cc1ccc(O)cc1)NC(=O)[C@@H]1CCCN1C(=O)CNC(=O)[C@H](CCC(=O)O)NC(=O)[C@H](CC(=O)O)NC(=O)[C@H](CCCCN)NC(=O)[C@H](CCCCN)NC(=O)[C@H](CCC(=O)O)NC(=O)[C@H](C)N)C(=O)N[C@@H](CCC(=O)O)C(=O)N[C@@H](Cc1c[nH]cn1)C(=O)N[C@@H](Cc1ccccc1)C(=O)N[C@@H](CCCNC(=N)N)C(=O)N[C@@H](Cc1c[nH]c2ccccc12)C(=O)NCC(=O)N[C@@H](CO)C(=O)N1CCC[C@H]1C(=O)N1CCC[C@H]1C(=O)N[C@@H](CCCCN)C(=O)N[C@@H](CC(=O)O)C(=O)O [β-MSH]
expression of brain gnih, sgnrh and cgnrh ([1]; in vitro): increase brain gnih and decrease sgnrh and cgnrh expression in vitro
expression of ovarian genes [1]: affect expression of some ovarian genes
IC50 (caMC4R [2]): 329 ± 120 nM
maximal response at caMC4R in comparison with hMC4R (caMC4R [3]; caMC4R vs hMC4R, cAMP): higher maximal responses than hMC4R
Rmax (caMC4R [3]; caMC4R, % of hMC4R, cAMP by RIA, 1 h at 37 °C, maximal response, mean ± SEM of at least three independent experiments): 163.9 ± 89.36%
EC50 (caMC4R [3]; caMC4R, cAMP by RIA, 0.5 mM isobutylmethylxanthine, 1 h at 37 °C, 10^−12 to 10^−6 M NDP-MSH and ACTH (1–24), 10^−11 to 10^−5 M α-MSH and β-MSH, mean ± SEM of at least three independent experiments): 2.49 ± 0.81 nM

HS024
food intake (goldfish): stimulates food intake
